Measured values: patent publication US11273200B2, “Immunotherapy against several tumors including gastrointestinal and gastric cancer” (Immatics Biotechnologies GmbH, priority 2010, dated 2022)

Assays:
CD8+ T cells [1] = assay: In vitro immunogenicity of HLA-A*0201 restricted TUMAPs: priming of CD8+ T cells with pMHC/anti-CD28 coated beads (aAPC), multimer staining; assay type: cell-based, human; settings: HLA-A*0201 peptides, healthy donors, three stimulation cycles; for Wells positive/evaluable [%]: at least 48 wells evaluable; for Donors positive/evaluable [%]: at least four donors evaluable
Source text: (§1) In order to perform in vitro stimulations by artificial antigen presenting cells (aAPC) loaded with peptide-MHC complex (pMHC) and anti-CD28 antibody, we first isolated CD8 T cells from fresh HLA-A*24 leukapheresis products or from HLA-A*2 buffy coats of healthy donors obtained from the Blood Bank Tuebingen.
(§2) CD8 T cells were either directly enriched or PBMCs (peripheral blood mononuclear cells) were isolated first by using standard gradient separation medium (PAA, Colbe, Germany). Isolated CD8 lymphocytes or PBMCs were incubated until use in T-cell medium (TCM) consisting of RPMI-Glutamax (Invitrogen, Karlsruhe, Germany) supplemented with 10% heat inactivated human AB serum (PAN-Biotech, Aidenbach, Germany), 100 U/ml Penicillin/100 μg/ml Streptomycin (Cambrex, Cologne, Germany), 1 mM sodium pyruvate (CC Pro, Oberdorla, Germany), 20 μg/ml Gentamycin (Cambrex). […] Isolation of CD8+ lymphocytes was performed by positive selection using CD8 MicroBeads (Miltenyi Biotec, Bergisch-Gladbach, Germany).
(§3) 800.000 beads/200 μl were coated in 96-well plates in the presence of 600 ng biotin-anti-CD28 plus 200 ng relevant biotin-pMHC (high density beads). […] Half of the medium was then exchanged by fresh TCM supplemented with 80 U/ml IL-2 and incubation was continued for 3-4 days at 37° C. This stimulation cycle was performed for a total of three times.
(§4) In vitro priming of specific multimer+ CD8+ lymphocytes was detected by appropriate gating and by comparing to negative control stimulations.

[2] = described in other applications by immatics; vaccines IMA901, IMA910; cited from earlier work
CD8+ T cells [3] = assay: In vitro immunogenicity of HLA-A*2402 restricted TUMAPs: priming of CD8+ T cells with pMHC/anti-CD28 coated beads (aAPC), multimer staining; assay type: cell-based, human; settings: HLA-A*2402 peptides, healthy donors, three stimulation cycles; for Wells positive/evaluable [%]: at least 48 wells evaluable; for Donors positive/evaluable [%]: at least four donors evaluable
Source text: as §1, §2, §3, §4

Row | Substance | Wells positive/evaluable [%] (CD8+ T cells [1]) | Donors positive/evaluable [%] (CD8+ T cells [1]) | in vivo reactions [2] | Wells positive/evaluable [%] (CD8+ T cells [3]) | Donors positive/evaluable [%] (CD8+ T cells [3])
1 | YVDPVIT SI (YVDPVITSI; listed as Homo sapiens) [MET-001] | 42% | 67% | extremely good in vivo reactions |  | 
2 | RYLEGTSCI (listed as Homo sapiens) [EPPK1-001] |  |  |  | 1% | 17%
3 | VFDTAIAHLF (listed as Homo sapiens) [SIAH2-001] |  |  |  | 8% | 50%
4 | YYKNIGLGF (listed as Homo sapiens) [RPS11-001] |  |  |  | 3% | 17%
5 | VYTTSYQQI (listed as Homo sapiens) [NFYB-001] |  |  |  | 7% | 50%
6 | VYLLNSTTL (listed as Homo sapiens) [CLCN3-001] |  |  |  | 6% | 33%
7 | TYGNLLDYL (listed as Homo sapiens) [ABL1-001] |  |  |  | 18% | 83%
8 | FYQPKIQQF (listed as Homo sapiens) [FANCI-001] |  |  |  | 1% | 17%
9 | RYLPKGFLNQF (listed as Homo sapiens) [PTK2-001] |  |  |  | 4% | 17%
10 | HYKPTPLYF (listed as Homo sapiens) [SMC4-001] |  |  |  | 10% | 73%
11 | SYLQAANAL (listed as Homo sapiens) [COL6A3-001] |  |  |  | 0% | 0%
12 | RYLWATVTI (listed as Homo sapiens) [ASPM-001] |  |  |  | 3% | 17%
13 | YYYVGFAYL (listed as Homo sapiens) [EIF'3L-001] |  |  |  | 29% | 100%
14 | QYASRFVQL (listed as Homo sapiens) [PLK4-001] |  |  |  | 5% | 60%
15 | KIQEILTQV (listed as Homo sapiens) [IGF2BP3-001] | 21% | 50% |  |  | 
16 | VYKVVGNLL (listed as Homo sapiens) [IQGAP3-001] |  |  |  | 24% | 100%
17 | IYNGKLFDLL (listed as Homo sapiens) [KIF2C-001] |  |  |  | 2% | 17%
18 | SYIDVLPEF (listed as Homo sapiens) [MET-006] |  |  |  | 21% | 67%
19 | VYISSLALL (listed as Homo sapiens) [PSMD14-001] |  |  |  | 1% | 17%

Row | Substance | Wells positive/evaluable [%] (CD8+ T cells [1]) | Donors positive/evaluable [%] (CD8+ T cells [1]) | in vivo reactions [2] | Wells positive/evaluable [%] (CD8+ T cells [3]) | Donors positive/evaluable [%] (CD8+ T cells [3])
20 | NYLLYVSNF (listed as Homo sapiens) [MST1R-001] |  |  |  | 13% | 50%
21 | VYPNWAIGL (listed as Homo sapiens) [SLC6A6-001] |  |  |  | 1% | 17%
22 | MYMTVSIIDRF (listed as Homo sapiens) [CCNB1-003] |  |  |  | 3% | 33%
23 | SYNVTSVLF (listed as Homo sapiens) [LCN2-001] |  |  |  | 1% | 17%
24 | QYIDKLNEL (listed as Homo sapiens) [CCDC88A-001] |  |  |  | 0% | 0%
25 | SYIIDPLNL (listed as Homo sapiens) [PROM1-001] |  |  |  | 26% | 83%
26 | IYPDASLLI (listed as Homo sapiens) [CEA-010] |  |  |  | 3% | 40%
27 | NYLPFIMEL (listed as Homo sapiens) [UCHL5-001] |  |  |  | 12% | 75%
28 | AYPTVKFYF (listed as Homo sapiens) [DNAJC10-002] |  |  |  | 3% | 33%
29 | LYLENIDEF (listed as Homo sapiens) [POLD3-001] |  |  |  | 7% | 67%
30 | FYISPVNKL (listed as Homo sapiens) [AVL9-001] |  |  |  | 31% | 100%
31 | DYAYLREHF (listed as Homo sapiens) [ZNF598-001] |  |  |  | 17% | 83%
32 | VYNPTPNSL (listed as Homo sapiens) [COL12A1-001] |  |  |  | 0% | 0%
33 | IYLEVIHNL (listed as Homo sapiens) [DNAJC10-001] |  |  |  | 15% | 50%
34 | VWSDVTPLTF (listed as Homo sapiens) [MMP11-001] |  |  |  | 11% | 33%
35 | IFSKIVSLF (listed as Homo sapiens) [EIF2S3-001] |  |  |  | 1% | 17%
36 | VFIFKGNQF (listed as Homo sapiens) [MMP3-001] |  |  |  | 1% | 11%
37 | LYPEVFEKF (listed as Homo sapiens) [ATAD2-003] |  |  |  | 0% | 0%
38 | LYQILQGIVF (listed as Homo sapiens) [CDC2-001] |  |  |  | 28% | 83%

Row | Substance | Wells positive/evaluable [%] (CD8+ T cells [1]) | Donors positive/evaluable [%] (CD8+ T cells [1]) | in vivo reactions [2] | Wells positive/evaluable [%] (CD8+ T cells [3]) | Donors positive/evaluable [%] (CD8+ T cells [3])
39 | KIFDEILVNA (listed as Homo sapiens) [TOP-001] | 10% | 40% |  |  | 
40 | VYGIRLEHF (listed as Homo sapiens) [NUF2-001] |  |  |  | 50% | 100%
41 | DYTIGFGKF (listed as Homo sapiens) [ITGB4-001] |  |  |  | 20% | 67%
42 | KYNDTFWKEF (listed as Homo sapiens) [HSP90B1-001] |  |  |  | 7% | 50%
43 | RYLPQCSYF (listed as Homo sapiens) [CCND2-001] |  |  |  | 10% | 17%
44 | VYFSKSEQL (listed as Homo sapiens) [EPHA2-005] |  |  |  | 0% | 0%
45 | RFLSGIINF (listed as Homo sapiens) [NUF2-002] |  |  |  | 6% | 50%
46 | YYNAAGFNKL (listed as Homo sapiens) [UQCRB-001] |  |  |  | 24% | 83%
47 | KYLTVKDYL (listed as Homo sapiens) [ATAD2-002] |  |  |  | 1% | 17%
48 | AYAIIKEEL (listed as Homo sapiens) [ATAD2-001] |  |  |  | 3% | 33%
49 | VYIEKNDKL (listed as Homo sapiens) [ERBB3-001] |  |  |  |  | 83%
50 | SYQKVIELF (listed as Homo sapiens) [PBK-001] |  |  |  | 0% | 0%
51 | SYATLLHVL (listed as Homo sapiens) [GPR39-001] |  |  |  | 6% | 50%
52 | IYAPKLQEF (listed as Homo sapiens) [CCNE2-001] |  |  |  | 0% | 0%
53 | AYLVYTDRL (listed as Homo sapiens) [PPAP2C-001] |  |  |  | 29% | 83%
54 | SYNPLWLRI (listed as Homo sapiens) [ASPM-002] |  |  |  | 32% | 67%
55 | VYTTMAEHF (listed as Homo sapiens) [TSPAN1-002] |  |  |  | 1% | 17%
56 | NYEETFPHI (listed as Homo sapiens) [MUC6-001] |  |  |  | 22% | 83%
57 | SYLELVKSL (listed as Homo sapiens) [SDHC-001] |  |  |  | 3% | 33%
